Results on 36 compounds are retold here after ChEMBL document CHEMBL1201862, “PubChem BioAssay data set” (2004).

SMILES strings stand for the structures. Where “and” joins values, the source holds several entries; their conditions need not be identical. Equal values may be shown once.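 Results reflect a 48-hour exposure of cells in 96-well plates to compound at five concentrations. The concentration for 50% growth inhibition is given as GI50.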 Calls of active or inactive are those of the source. Rule as the data show it: active = GI50 up to about 1.1 µM and inactive = higher.

Among the test systems are DMS-273; LXFL 529; RXF 631; XF498; HOP-18; BT-549; MDA-N; T47D; NCI/ADR-RES.
Assay in all cases: DTP human tumour cell line panel, 48 h

What is called GI50 is the concentration that inhibits growth by half. In the case of `CC(C)C(NCc1c2ccccc2nc2ccccc12)C(=O)O` (stereo unspecified), the GI50 was 32.6 µM (inactive) with DMS-273, 39 µM (inactive) with LXFL 529, 19.9 µM (inactive) in the assay with RXF 631 and 21.1 µM (inactive) in the assay on XF498.

For the compound `c1ccc(-c2nnc(-c3nn(-c4ccccc4)c4nc5ccccc5nc34)o2)cc1`, the GI50 in the assay with DMS-273 was 92 µM (inactive); with HOP-18, 20 µM (inactive); in the assay with LXFL 529 it was 12.3 µM (inactive); in the assay on XF498 it was 22.1 µM (inactive).

Turning to `COc1ccc(-c2c(C3=NCCCN3)nnn2-c2ccc([N+](=O)[O-])cc2)cc1`, the GI50 in the assay on DMS-273, in the assay on HOP-18 and in the assay with LXFL 529 was > 100 µM (inactive) in each case.

With `Nc1cc(C(=O)NC2C3CC4CC(C3)CC2C4)nc(S)n1` (stereo unspecified), the GI50 in the assay with LXFL 529 and in the assay on XF498 was > 100 µM (inactive) in each case.

Consider `NC1=NC(=O)/C(=C2\CCNC(=O)c3[nH]c(Br)cc32)N1` [HYMENIALDISINE], for which the GI50 in the assay with BT-549 was 10.4 µM (inactive); with DMS-273, > 85.5 µM (inactive); with HOP-18, > 45.1 µM (inactive); in the assay on MDA-N it was 1.9 µM (inactive); in the assay on T47D, 7.87 µM (inactive); with XF498 it was > 100 µM (inactive).

On to `COC1(OC)C2(Cl)C3=CCCC=C3C1(Cl)C(Cl)=C2Cl`, for which the GI50 in the assay with DMS-273 is 13.3 µM (inactive); in the assay with LXFL 529, 25.6 µM (inactive); in the assay with RXF 631, 13.2 µM (inactive); in the assay on XF498, 19.2 µM (inactive).

Take `O=C(c1ccccc1)c1nnn(Cc2ccccc2Cn2nnc(C(=O)c3ccccc3)c2C(=O)c2ccccc2)c1C(=O)c1ccccc1`: the GI50 with DMS-273, in the assay with HOP-18 and with LXFL 529 was > 100 µM (inactive) in each case.

On to `COc1ccc(OC(C)C(=O)O)c2c1CCCC2=O` (stereo unspecified), for which the GI50 in the assay on DMS-273, in the assay on LXFL 529 and with XF498 was > 100 µM (inactive) in each case.

As for `COc1ccc(-c2c(C3=NCCN3)nnn2-c2ccccc2)cc1`, the GI50 in the assay with DMS-273, in the assay with HOP-18, in the assay on LXFL 529 and with XF498 was > 100 µM (inactive) each time.

With `CC1=NN(C(=O)CC(=O)Nc2cccc(Cl)c2)C(=O)C1/N=N/c1ccc(S(N)(=O)=O)cc1` (stereo unspecified), the GI50 in the assay on DMS-273, in the assay on HOP-18, in the assay with LXFL 529 and in the assay on XF498 was > 100 µM (inactive) throughout.

On to `CCN(CC)CCCn1cnc2ncccc2c1=O`, for which the GI50 in the assay on DMS-273 and in the assay with LXFL 529 was > 100 µM (inactive) throughout.

Regarding `COc1ccc(/C=C/C(=O)c2c(-c3ccccc3)nn(C)c(=O)c2N2CCOCC2)cc1`, the GI50 in the assay on DMS-273 is > 100 µM (inactive); in the assay on HOP-18, > 100 µM (inactive); with LXFL 529, > 100 µM (inactive); with RXF 631, > 100 µM (inactive); in the assay with XF498 it was 0.0601 µM (active).

`COc1ccc2c(c1)[n+]([O-])c(-c1ccccc1Cl)c(N)[n+]2[O-]`: the GI50 with DMS-273 is 55.6 µM (inactive); with HOP-18 it was > 100 µM (inactive); with LXFL 529, 55.3 µM (inactive); in the assay on RXF 631, 37.4 µM (inactive).

For `OCC1C(/C=C/c2ccoc2)ON2CCCC12` (stereo unspecified), the GI50 in the assay on DMS-273 is > 100 µM (inactive); in the assay with HOP-18 it was 0.279 µM (active); with LXFL 529 it was > 100 µM (inactive); in the assay with XF498, > 100 µM (inactive).

With `CCCCCCC(=O)CC(=O)C(=O)Nc1ccccc1C`, the GI50 in the assay on DMS-273, in the assay on HOP-18, in the assay with LXFL 529, in the assay with RXF 631 and with XF498 was > 100 µM (inactive) throughout.

On to `O=[N+]([O-])c1ccc(-n2nnc(C3=NCCN3)c2-c2ccc(Cl)cc2)cc1`, for which the GI50 with DMS-273, in the assay with HOP-18, in the assay on LXFL 529 and with XF498 was > 100 µM (inactive) in each case.

With `Cc1nc(Nc2ccc(Cl)cc2)sc1C(=O)NNC(=O)C(=O)NN`, the GI50 in the assay on DMS-273 is 19.1 µM (inactive); with HOP-18 it was 16.2 µM (inactive); in the assay with LXFL 529, 18.3 µM (inactive).

As to `Cc1ccc(S(=O)(=O)ON=C2CC(c3ccccc3)N(C)C(c3ccccc3)C2)cc1` (stereo unspecified), the GI50 in the assay on DMS-273 is 20.7 µM (inactive) and 19.5 µM (inactive); in the assay with LXFL 529, 15.6 µM (inactive) and 16.6 µM (inactive).

Turning to `COC1C(OC(=S)Nc2ccccc2)c2ccccc2N1C(C)=O` (stereo unspecified), the GI50 was 85.3 µM (inactive) with DMS-273, > 100 µM (inactive) in the assay on HOP-18, 44.4 µM (inactive) with LXFL 529 and > 100 µM (inactive) in the assay on XF498.

As to `O=[N+]([O-])c1cccc(C2N3CCCCC3[C@@H]3c4[nH]c5ccccc5c4CCN23)c1` (stereo partly specified), the GI50 with DMS-273 is 11.8 µM (inactive); with HOP-18 it was 54.6 µM (inactive); in the assay with LXFL 529, 19 µM (inactive); in the assay on XF498, 14 µM (inactive).

`C[Si](C)(C)C#C[I+]c1ccccc1`: the GI50 was 19.8 µM (inactive) with DMS-273; 75.5 µM (inactive) in the assay with HOP-18; 28.4 µM (inactive) in the assay with LXFL 529; 30.1 µM (inactive) in the assay with RXF 631; 29.8 µM (inactive) with XF498.

As for `Nc1c(-c2ccc(Br)cc2)[n+]([O-])c2ccccc2[n+]1[O-]`, the GI50 in the assay on DMS-273, in the assay on HOP-18, with LXFL 529 and in the assay with RXF 631 was > 100 µM (inactive) in each case.

Regarding `COC(C(=O)NCCCCNC(=O)C(OC)c1ccccc1)c1ccccc1` (stereo unspecified), the GI50 in the assay on DMS-273, in the assay on HOP-18, with LXFL 529, with RXF 631 and in the assay on XF498 was > 100 µM (inactive) in each case.

`COc1ccc(C(=O)CC(=O)C(=O)Nc2ccc(C)c(C)c2)cc1`: the GI50 with DMS-273 is 40 µM (inactive); in the assay on HOP-18, > 70.8 µM (inactive); in the assay on LXFL 529, > 64.9 µM (inactive); in the assay on RXF 631, > 68.2 µM (inactive).

Regarding `CN(C)/C(=N/C(=S)Nc1ccccc1)SCc1ccccc1`, the GI50 is 51.6 µM (inactive) with DMS-273; > 100 µM (inactive) in the assay with HOP-18; 2.38 µM (inactive) with LXFL 529; 88.1 µM (inactive) in the assay with RXF 631; 24.4 µM (inactive) with XF498.

As to `COc1cc(/C=C2\C(=O)N(C(=O)c3ccc(NC(C)=O)cc3)N=C2C)ccc1O`, the GI50 in the assay on DMS-273 and in the assay with HOP-18 was > 100 µM (inactive) throughout.

Consider `CC(=O)NC1C(OCc2ccccc2)OC(COC(=O)CCCCCNc2ccc([N+](=O)[O-])c3[nH]c4ccc(O)cc4c(=O)c23)C(O)C1OC(C)C(=O)N[C@@H](C)C(=O)N[C@H](CCC(=O)OCc1ccccc1)C(N)=O` (stereo partly specified), for which the GI50 with DMS-273 is 1.49 µM (inactive); with HOP-18 it was 1.71 µM (inactive); with LXFL 529 it was 1.5 µM (inactive); in the assay with RXF 631, 0.759 µM (active).

Regarding `CCc1ccccc1NC(=O)C1=C(C)NC(C)=C(C(=O)Nc2ccccc2CC)C1c1ccc(NC(C)=O)cc1`, the GI50 with LXFL 529 was 33 µM (inactive).

As for `C/C(=N/OCCC(=O)O)C1CC1`, the GI50 in the assay on DMS-273, in the assay with HOP-18, in the assay on LXFL 529 and in the assay with XF498 was > 100 µM (inactive) throughout.

Take `Cc1ccc(-c2cc(=S)n(-c3ccccc3)c3[nH]c(=S)n(-c4ccccc4)c(=N)c23)cc1`: the GI50 in the assay with DMS-273 and in the assay on LXFL 529 was > 100 µM (inactive) each time.

Consider `O=C1c2cccc3cccc(c23)C2NCCCN12` (stereo unspecified), for which the GI50 with BT-549 was > 100 µM (inactive); in the assay with MDA-N, > 100 µM (inactive); with NCI/ADR-RES it was 99.1 µM (inactive); in the assay with T47D, > 100 µM (inactive).

`CNC(=S)NNC(=O)c1c(C)nc2sccn12`: the GI50 in the assay with DMS-273 is > 100 µM (inactive); in the assay on HOP-18, 0.414 µM (active); with LXFL 529, > 100 µM (inactive); in the assay on RXF 631, > 100 µM (inactive); with XF498, > 100 µM (inactive).

For the compound `CCOc1ccccc1/N=N/c1c(-c2ccccc2)nn(C(=O)CC(=O)Nc2cccc(C)c2)c1-c1ccccc1`, the GI50 with DMS-273 was > 100 µM (inactive); in the assay on HOP-18 it was > 100 µM (inactive); in the assay on LXFL 529 it was > 100 µM (inactive); with RXF 631 it was 26.2 µM (inactive); with XF498, > 100 µM (inactive).

`Cc1c(C(=O)/C=C/c2ccc(N(C)C)cc2)c(=O)n(-c2ccccc2)n1C`: the GI50 in the assay with DMS-273, in the assay on LXFL 529 and in the assay on XF498 was > 100 µM (inactive) each time.

Turning to `CSC1=Nc2ccccc2N=C(c2ccccc2)C1`, the GI50 with DMS-273 is 39.6 µM (inactive); in the assay on HOP-18 it was > 100 µM (inactive); in the assay with LXFL 529, 70 µM (inactive); in the assay on RXF 631 it was 46.7 µM (inactive); with XF498, 39.4 µM (inactive).

For `CCCC(CC)c1cc(O)c(O)cc1C(CC)CCC` (stereo unspecified), the GI50 in the assay with BT-549, in the assay on MDA-N, with NCI/ADR-RES and in the assay on T47D was > 10 µM (inactive) in each case.
